Data published in patent US8946142B2, “Beta-arrestin effectors and compositions and methods of use thereof” (Trevena, Inc., priority 2012, dated 2015).
Where a SMILES comes first, the peptide text is derived from it. [ ]: non-standard residue; d: D form. Tle = CC(C)(C)[C@H](N)C(=O)O; Ac6c = NC1(C(=O)O)CCCCC1; Sar = CNCC(=O)O

Legend:
Format in all cases: cell-based
human AT1R [1] = target: T1, human AT1R (Homo sapiens, UniProt P30556); experiment: IP1 accumulation assay (IP1 G-protein assay), human AT1R; conditions: for Emax: read-out: Span (relative to hAngII)
T1 sequence (P30556 1-359): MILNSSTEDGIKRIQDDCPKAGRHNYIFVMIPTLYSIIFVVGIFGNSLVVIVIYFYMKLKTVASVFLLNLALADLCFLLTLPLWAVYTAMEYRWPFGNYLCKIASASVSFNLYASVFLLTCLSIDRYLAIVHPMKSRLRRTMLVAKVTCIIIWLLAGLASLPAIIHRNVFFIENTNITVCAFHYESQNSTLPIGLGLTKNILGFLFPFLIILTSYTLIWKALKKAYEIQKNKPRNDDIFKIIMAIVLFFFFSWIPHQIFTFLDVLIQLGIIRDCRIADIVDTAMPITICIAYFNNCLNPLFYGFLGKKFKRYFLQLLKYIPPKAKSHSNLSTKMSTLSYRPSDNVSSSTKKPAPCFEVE

rat AT1aR [2] = target: T2, rat AT1aR (Rattus norvegicus, UniProt P25095); experiment: IP1 accumulation assay (IP1 G-protein assay), rat AT1aR; conditions: for Emax: read-out: Span (relative to hAngII)
T2 sequence (P25095 1-359): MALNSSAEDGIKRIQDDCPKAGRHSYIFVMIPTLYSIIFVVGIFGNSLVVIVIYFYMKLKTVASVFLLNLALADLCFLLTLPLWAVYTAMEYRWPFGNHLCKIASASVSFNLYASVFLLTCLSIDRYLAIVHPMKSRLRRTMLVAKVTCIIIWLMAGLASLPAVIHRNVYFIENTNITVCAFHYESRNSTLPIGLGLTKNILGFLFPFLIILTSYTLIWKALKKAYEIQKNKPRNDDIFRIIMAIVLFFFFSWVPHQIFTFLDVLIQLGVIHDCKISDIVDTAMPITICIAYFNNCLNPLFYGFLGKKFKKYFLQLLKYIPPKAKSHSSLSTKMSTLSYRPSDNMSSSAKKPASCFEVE

human AT1R [3] = target: T1, human AT1R; experiment: beta-arrestin2 recruitment assay (PathHunter), human AT1R; conditions: for Emax: 1 h, read-out: Span (relative to hAngII)
Summary of the method: (§1)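 Luminescence, in arbitrary units, read after 60 min room-temperature detection reflects β-arrestin-2 recruitment to human AT1R or rat AT1aR stably expressed in PathHunter HEK293 clones. Cells were exposed to peptides from 1 pM to 100 μM final in HEPES-buffered HBSS for 60 min at 37 °C.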

rat AT1aR [4] = target: T2, rat AT1aR; experiment: beta-arrestin2 recruitment assay (PathHunter), rat AT1aR; conditions: for Emax: 1 h, read-out: Span (relative to hAngII)
Summary of the method: as §1

| SMILES | EC50 (human AT1R [1]; read-out: EC50) | Emax (human AT1R [1]) | EC50 (human AT1R [1]; read-out: pEC50 (converted)) | EC50 (rat AT1aR [2]; read-out: EC50) | Emax (rat AT1aR [2]) | EC50 (rat AT1aR [2]; read-out: pEC50 (converted)) | Emax (human AT1R [3]) | EC50 (human AT1R [3]; read-out: EC50) | EC50 (human AT1R [3]; read-out: pEC50 (converted)) | Emax (rat AT1aR [4]) | EC50 (rat AT1aR [4]; read-out: EC50) | EC50 (rat AT1aR [4]; read-out: pEC50 (converted)) | EC50 (nM) (human AT1R [1]) | pEC50 (human AT1R [1]) | EC50 (nM) (rat AT1aR [2]) | pEC50 (rat AT1aR [2]) |
| --- | --- | --- | --- | --- | --- | --- | --- | --- | --- | --- | --- | --- | --- | --- | --- | --- |
| CNCC(=O)N[C@@H](CCCNC(=N)N)C(=O)N[C@H](C(=O)N[C@@H](Cc1ccc(O)cc1)C(=O)NC1(C(=O)N[C@@H](Cc2c[nH]cn2)C(=O)N2CCC[C@H]2C(=O)N[C@@H](Cc2ccc(O)cc2)C(=O)O)CCCCC1)C(C)C [SEQ ID NO: 55, Sar-Arg-Val-Tyr-cyHex-His-Pro-Tyr] (H-[Sar]RVY[Ac6c]HPY-OH) | > 1.3 nM | < 103% | > 0.631 nM | > 0.6 nM | < 104% | > 0.631 nM | < 101% | > 3.2 nM | > 3.16 nM | < 105% | > 3.2 nM | > 3.16 nM | – | – | – | – |
| CNCC(=O)N[C@@H](CCCNC(=N)N)C(=O)N[C@H](C(=O)N[C@@H](Cc1ccc(O)cc1)C(=O)NC1(C(=O)N[C@@H](Cc2c[nH]cn2)C(=O)N2CCC[C@H]2C(=O)N[C@H](C(=O)O)C(C)(C)C)CCCCC1)C(C)C [SEQ ID NO: 56, Sar-Arg-Val-Tyr-cyHex-His-Pro-AA02] (H-[Sar]RVY[Ac6c]HP[Tle]-OH) | > 1.3 nM | < 103% | > 0.631 nM | > 0.6 nM | < 104% | > 0.631 nM | < 101% | > 3.2 nM | > 3.16 nM | < 105% | > 3.2 nM | > 3.16 nM | – | – | – | – |
| CNCC(=O)N[C@@H](CCCNC(=N)N)C(=O)N[C@H](C(=O)N[C@@H](Cc1ccc(O)cc1)C(=O)NC1(C(=O)N[C@@H](Cc2c[nH]cn2)C(=O)N2CCC[C@H]2C(=O)N[C@H](C)C(=O)O)CCCCC1)C(C)C [SEQ ID NO: 57, Sar-Arg-Val-Tyr-cyHex-His-Pro-D-Ala] | – | – | – | – | – | – | < 101% | > 3.2 nM | > 3.16 nM | < 105% | > 3.2 nM | > 3.16 nM | Inactive | Inactive | Inactive | Inactive |
| CC[C@H](C)[C@@H](C(=O)N[C@@H](Cc1c[nH]cn1)C(=O)N1CCC[C@H]1C(=O)N[C@@H](C)C(=O)O)N(C)C(=O)[C@H](Cc1ccc(O)cc1)NC(=O)[C@@H](NC(=O)[C@H](CCCNC(=N)N)NC(=O)CNC)C(C)C [SEQ ID NO: 58, Sar-Arg-Val-Tyr-NMeIle-His-Pro-Ala] | – | – | – | > 0.6 nM | < 104% | > 0.631 nM | < 101% | > 3.2 nM | > 3.16 nM | < 105% | > 3.2 nM | > 3.16 nM | Inactive | Inactive | – | – |
| CNCC(=O)N[C@@H](CCCNC(=N)N)C(=O)N[C@H](C(=O)N[C@@H](Cc1ccc(O)cc1)C(=O)NC1(C(=O)N[C@@H](Cc2c[nH]cn2)C(=O)N2CCC[C@H]2C(=O)N[C@H](C)C(=O)O)CCCC1)C(C)C [SEQ ID NO: 59, Sar-Arg-Val-Tyr-cyPen-His-Pro-D-Ala] | – | – | – | > 0.6 nM | < 104% | > 0.631 nM | < 101% | > 3.2 nM | > 3.16 nM | < 105% | > 3.2 nM | > 3.16 nM | Inactive | Inactive | – | – |
| CNCC(=O)N[C@@H](CCCNC(=N)N)C(=O)N[C@H](C(=O)N[C@@H](Cc1ccc(O)cc1)C(=O)N1CCC[C@H]1C(=O)N[C@@H](Cc1c[nH]cn1)C(=O)N1CCC[C@H]1C(=O)N[C@H](C)C(=O)O)C(C)C [SEQ ID NO: 60, Sar-Arg-Val-Tyr-Pro-His-Pro-D-Ala] (H-[Sar]RVYPHP[dA]-OH) | > 1.3 nM | < 103% | > 0.631 nM | > 0.6 nM | < 104% | > 0.631 nM | < 101% | > 3.2 nM | > 3.16 nM | < 105% | > 3.2 nM | > 3.16 nM | – | – | – | – |
